A short description of data set [1]: Digestion test with bronchoalveolar lavage fluid (BALF). The class given is in vitro ADME. The following applies: rat BALF, 90 minutes; for remaining at 1.5 h, 0.1 mg/mL: male, SD, bronchoalveolar lavage fluid (BALF), pH 7.4, 37° C., read-out: remaining rate (undegraded peptide by HPLC). As for the experimental part:
The effect of highly basified Peptide 5 on digestion with bronchoalveolar lavage fluid was studied.
VIP and Peptide 5 were dissolved (1.1 mg/mL) in a 0.2% Tris-HCl buffer (pH 7.4), and bronchoalveolar lavage fluid (BALF) was added thereto. BALF was obtained by pouring 5 mL of a physiological saline into a trachea of a 8 to 9 week old normal SD male rat (about 350 g) under anesthesia, and recovering the saline, and repeating this procedure totally three times. To 0.5 mL of BALF was added 0.05 mL of a sample solution and the mixture was reacted at 37° C. for 90 minutes, and thereafter an amount of undegraded peptide was measured by HPLC.

In another data set the test system is isolated lacrimal gland. The data set is described as follows: Promotion of protein secretion from isolated lacrimal gland. Also on record: species or system rabbit. To be noted: 10^-4 M, treating time 0 to 40 minutes, n=5, Dunnett's test (FIG. 1). How it is done:
An isolated lacimal gland of a rabbit was treated with VIP, or Peptide 5 or 15, and the pharmacological effect of these peptides on increase in an amount of secreted protein was studied.
a) Purified water was added to sodium chloride (137.92 g), potassium chloride (7.01 g), calcium chloride-dihydrate (3.53 g) and magnesium chloride.hexahydrate (1.2 g) and the mixture was made up to a total volume of 1000 mL (Solution 1). Separately, purified water was added to potassium dihydrogen phosphate (8.17 g) and the mixture was made up to a total volume of 500 mL (Solution 2). Solution 1 (50 mL) and Solution 2 (10 mL) were added to 900 mL of purified water, 2.07 g of glucose and 2.1 g of […] were dissolved therein, a total amount was adjusted to 1000 mL (pH about 7.4) to obtain an incubation medium. The incubation medium was bubbled with mixed gas containing 95% oxygen and 5% carbon dioxide.
b) VIP, Peptide 5 or Peptide 15 was dissolved in the incubation medium at a concentration of 10^−4 M to obtain a test solution. […]
a) The piece specimen in the steady state was used, the incubation medium was exchanged with 0.5 mL of a fresh incubation medium, followed by incubation at 37° C. for 20 minutes. This incubation medium was collected, a protein staining reagent (DC Protein assay reagent, Bio Rad) was added thereto, and an amount of protein was measured and expressed as an amount of secreted protein per mg of wet weight. […]
b) The incubation medium of the piece specimen after incubation in a) was exchanged with 0.5 mL of a test solution, and the solution was exchanged and collected at 20 minutes intervals totally five times. A protein staining reagent was added to the collected solution, and an amount of protein was measured. For a piece specimen in a control group, the incubation medium was exchanged similarly, and an amount of protein was measured.

Data set [2] can be described thus: Trypsin digestion test in the presence of chondroitin sulfate. In kind it is in vitro ADME. To be noted: 0.5 mU trypsin, pH 7.5, 37° C., 180 minutes, read-out: remaining rate (undegraded peptide by HPLC). As for the experimental part:
The effect of highly basified Peptide 5 on digestion with trypsin was studied in the presence of chondroitin sulfate.
To 100 μL of a solution of VIP and Peptide 5 (1 mg/mL) was added 400 μL of a solution of chondroitin sulfate (pH 7.5, 100 μg/mL) in a 0.2 M Tris-HCl buffer (pH 7.5). To 100 μL of this solution was added 0.5 mU of trypsin and the mixture was incubated at 37° C. for 180 minutes. Then, an amount of an undegraded peptide was measured by HPLC.

Data set [3] deals with eyes of a Japanese white rabbit. As to the kind of experiment: Lacrimal secretion promotion activity of eye drops (2), Schirmer test with time. The class given is in vivo. To be noted: for AUC0-120 min, accumulated value of increment of amount of lacrimal secretion after application / increment of amount of lacrimal secretion vs control group / AUC value compared with control group (significance): 0.1 w/v %; for AUC0-120 min, accumulated value of increment of amount of lacrimal secretion after application: 50 μL once to eyes, n = 8, average ± standard error; for increment of amount of lacrimal secretion vs control group: 10 minutes after the administration, n=8 (FIG. 2); for AUC value compared with control group (significance): 120 minutes after the administration, Dunnett-type multiple comparison test. As for the experimental part:
In the same manner as that of Test Example 4, Peptide 5 was applied, and an amount of lacrimal secretion was measured. In this test, an amount of lacrimal secretion was measured with time, and the effect was compared with that of VIP.
Preparation of a solution was performed in the same manner as that of Test Example 4, and VIP and Peptide 5 were dissolved in the vehicle at a concentration of 0.1 w/v %, to prepare a test solution.
[…] Measurement of an amount of lacrimal secretion was performed in the same manner as that of Test Example 4.

The test system is the same in data set [4]. The data set is described as follows: Lacrimal secretion promotion activity of eye drops (1), Schirmer test. The class given is in vivo. To be noted: for Amount of lacrimal secretion (Schirmer's value), After administration: 10 minutes after single 50 μL application; for Amount of lacrimal secretion (Schirmer's value), After administration / amount of lacrimal secretion after vs before application (paired t test): Peptide 5 0.1 w/v %, Peptide 15 2.0 w/v %; for Amount of lacrimal secretion (Schirmer's value), After administration / Amount of lacrimal secretion (Schirmer's value), Before administration: n = 6, mean ± standard error; for Amount of lacrimal secretion (Schirmer's value), Before administration: baseline before single 50 μL application to eyes; for amount of lacrimal secretion after vs before application (paired t test): single application to eyes. How it is done: Peptide 5 or 15 was applied to eyes of a rabbit, and an amount of secreted tears was measured, whereby, the pharmacological effect of these peptides on increase in an amount of lacrimal secretion was studied.
Purified water was added to sodium chloride (0.9 g) and sodium dihydrogen phosphate.dihydrate (0.1 g) to make up to a total volume of 100 mL. Further, an appropriate amount of aqueous sodium hydroxide solution was added so as to adjust pH to 7.0 to obtain a vehicle. Peptide 5 was dissolved in the vehicle at a concentration of 0.1 w/v %, and Peptide 15 was dissolved in the vehicle at a concentration of 2.0 w/v %, to prepare test solutions.
Measurement of an amount of tears was performed by a Schirmer test. To eyes of a Japanese white rabbit, 50 μL of a test solution was applied once, and amounts of lacrimal secretion before and 10 minutes after the application to eyes were measured. Five minutes before measurement of an amount of tears, 10 μL of 0.4 w/v % oxybuprocaine hydrochloride (Anelocal™ eye drops, Senju Pharmaceutical Co., Ltd.) was dropped to topically anesthetize. After tears in palpebra interior conjunctival sac were wiped out using a filter paper, and an amount of lacrimal secretion for 1 minute was measured using a Schirmer test paper (Showa Yakuhin Kako Co., Ltd.).

For orientation: share remaining means what is left of the initial amount, in per cent.

Where no end group is shown, it is not given here.

As for `CC[C@H](C)[C@H](NC(=O)[C@H](CO)NC(=O)[C@H](CC(N)=O)NC(=O)[C@H](CC(C)C)NC(=O)[C@H](Cc1ccc(O)cc1)NC(=O)[C@H](CCCCN)NC(=O)[C@H](CCCCN)NC(=O)[C@@H](NC(=O)[C@H](C)NC(=O)[C@H](CCSC)NC(=O)[C@H](CCC(N)=O)NC(=O)[C@H](CCCCN)NC(=O)[C@H](CCCNC(=N)N)NC(=O)[C@H](CC(C)C)NC(=O)[C@H](CCCNC(=N)N)NC(=O)[C@@H](NC(=O)[C@H](Cc1ccc(O)cc1)NC(=O)[C@H](CC(N)=O)NC(=O)[C@H](CC(=O)O)NC(=O)[C@@H](NC(=O)[C@H](Cc1ccccc1)NC(=O)[C@@H](NC(=O)[C@H](C)NC(=O)[C@H](CC(=O)O)NC(=O)[C@H](CO)NC(=O)[C@@H](N)Cc1c[nH]cn1)C(C)C)[C@@H](C)O)[C@@H](C)O)C(C)C)C(=O)N[C@@H](CC(C)C)C(=O)N[C@@H](CC(N)=O)C(N)=O` [VIP, Vasoactive Intestinal Peptide, reference compound], the share remaining at 1.5 h, 0.1 mg/mL in data set [1] was 45.5%. Also, the “rate of protein secretion from isolated lacrimal gland vs control group” value (from here on “rate of protein secretion … vs control group”) in the data set on isolated lacrimal gland was “significantly increased”. Also, in data set [2], the fraction remaining at 3 h, 0.2 mg/mL came out at 75%. In data set [3], the “AUC0-120 min, accumulated value of increment of amount of lacrimal secretion after application” value is 215.0 ± 98.2 ΔSchirmer's value × min; the “increment of amount of lacrimal secretion vs control group” value was “significantly increased”; the “AUC value compared with control group (significance)” value is listed as “a significant difference is not recognized”.

As for “HSDAVFTDNYTRLRRQLAVRRYLNSILNGRR-NH2 [Peptide 5]”, in data set [1], the fraction remaining at 1.5 h, 0.1 mg/mL turned out to be 80% and the “remaining rate as compared with VIP” value is on record as “about 1.8 fold”. Besides, the “rate of protein secretion … vs control group” value in the data set on isolated lacrimal gland was “significantly increased”. Further, in data set [4], the “Amount of lacrimal secretion (Schirmer's value), After administration” value is recorded as 8.92 ± 0.45 mm/min; the “Amount of lacrimal secretion (Schirmer's value), Before administration” value was determined as 2.00 ± 0.62 mm/min; the “amount of lacrimal secretion after vs before application (paired t test)” value is listed as “significantly increased”. Also, in data set [2], the fraction remaining at 3 h, 0.2 mg/mL was 89%. Besides, in data set [3], the “AUC0-120 min, accumulated value of increment of amount of lacrimal secretion after application” value is 359.2 ± 85.0 ΔSchirmer's value × min; the “increment of amount of lacrimal secretion vs control group” value is “significantly increased”; the “AUC value compared with control group (significance)” value is recorded as “significantly higher value”. The “duration of lacrimal secretion promoting activity compared with VIP” value in data set [3] (application to eyes) was “longer-lasting”.

Take “Peptide 15: VIP derivative of formula (I): X1 Lys, X2 Leu, X3 Lys, X4 Lys, X5 chemical bond, X6 -NH2 (HSDAVFTDNYTRLRKQLAVKKYL-NH2)”: the “rate of protein secretion … vs control group” value in the data set with isolated lacrimal gland was “significantly increased”. Also, in data set [4], the “Amount of lacrimal secretion (Schirmer's value), After administration” value was 7.75 ± 2.16 mm/min; the “Amount of lacrimal secretion (Schirmer's value), Before administration” value was determined as 3.25 ± 1.20 mm/min; the “amount of lacrimal secretion after vs before application (paired t test)” value is reported as “tendency of increase”.
